Legend:
Type in all cases: cell-based, Human
MCF7 cells [1] = assay: Scratch assay (wound closure, migration); details: 48 hours, vs vehicle
From the text: It is though that CSCs are responsible for metastatic spread and growth. Emerging evidence highlights the role of mitochondrial dynamics in tumor cell dissemination. […] In migrating cancer cells mitochondria accumulate at the leading edge where processes requiring high energy occur, such as formation of focal adhesions. Fission seems to be a prerequisite for that efficient relocation of mitochondria. Indeed, upregulation/activation of DRP1 is associated with a migratory and invasive phenotype in cancer. […] Through a scratch assay, were cells were cultured in the presence of either vehicle or mDIVI-1. The scratch was monitored over time and the percentage of wound closure was measured as described previously.
SCRATCH ASSAY: A hundred thousand MCF7 cells per well were seeded in 12-well plates. When cells were attached, a horizontal scratch was performed using the tip of a pipette. Immediately after, the media was removed and either fresh vehicle-containing media or mDIVI-1-containing media were added to the cells for 48 hours. Four replicates were used for each condition. […] The wound closure was monitored by taking pictures of each well every 4 hours. At the end of the treatment, pictures of the wells at 0 and 48 hours were analysed using ImageJ software to calculate wound closure according to the following formula: Percentage wound closure=[(wound area0 h−wound area48 h)/wound area0 h]×100.

MCF7 cells [2] = assay: Label-free quantitative proteomics; details: MCF7, 10 μM
From the text: Following protein digestion with trypsin, peptide fractions were processed on an LTQ-Orbitrap XL mass spectrometer. Those peptides identified were further analyzed to find proteomic changes between mDIVI-1-treated and vehicle-treated MCF7 cells, as described before. […] First, the inventors searched the proteomics datasets for changes in proteins involved in metabolism. […] That may possibly translate into a loss of antioxidant power, as the pentose phosphate pathway is a major source of NADPH.
LABEL-FREE SEMI-QUANTITATIVE PROTEOMICS: Chemicals and sample preparation. Formic acid, trifluoroacetic acid, ammonium formate (10 M), ammonium bicarbonate TCEP (Tris (2-carboxyethyl)phosphine hydrochloride), MMTS (Methyl methanethiosulfonate) and trypsin were all obtained from Sigma. HPLC gradient grade acetonitrile was obtained from Fisher Scientific. Briefly, 2×10^6 MCF7 cells were seeded in 15 cm plates until cells were attached. […] As control, vehicle-treated cells were processed in parallel. After 48 hours of treatment, cells were lysed in RIPA buffer (R0278, Sigma) and kept at 4° C. for 20 minutes with rotation. Lysates were cleared by centrifugation for 10 minutes at 10,000×g and supernatants were collected and kept frozen at −80° C.
PROTEIN DIGESTION: Lysate samples were thawed to room temperature and their concentrations equalized to 1 μg/μL (50 μL volume) with RIPA buffer, and further processed for trypsin digestion by sequential reduction of disulphide bonds with TCEP and alkylation with MMTS. Briefly, 1 μL benzonase (Novagen) was added to the 50 μL aliquot and placed on ice for 15 minutes. The sample was then taken to dryness using a SpeedVac, and resuspended in 22.5 μL trypsin reaction buffer (40 mM ammonium bicarbonate and 9% acetonitrile). One μL of 50 mM TCEP solution was added to each sample, mixed briefly and placed on a heater block at 60° C. for 60 minutes. After cooling to room temperature, 0.5 μL of 200 mM MMTS solution was added to each sample and allowed to react for 15 minutes. Trypsin was added in two waves to ensure efficient digestion of the sample. Firstly, 20 μg of sequencing grade trypsin was resuspended in 1800 μL of trypsin reaction buffer; 225 μL of this solution were added to each sample for digestion, and the reactions were left at 37° C. overnight with shaking (600 rpm). The following morning, a further aliquot of trypsin was added. Two ml of trypsin reaction buffer was added to 20 μL of sequencing grade trypsin; 250 μL of this solution were added to each of the digest samples from overnight, and the reactions were left at 37° C. for 4 hours with shaking (600 rpm). Thirty-five μL 10% formic acid were added to the 500 μL digest sample (0.7% final concentration of formic acid) to stop the digestion. The digested solution was diluted in 7.5 mL of acetonitrile containing 0.3% formic acid.
HILIC solid phase extraction (SPE) of peptides. PolyhydroxyethylA SPE 12 μm, 300 A, 300 mg cartridges (obtained from PolyLC) were used for the HILIC procedure. Prior to use, cartridges required an overnight soak in 50 mM formic acid followed by rinsing with water the following day. Cartridges were preconditioned with 2 mL of Buffer A (90% acetonitrile, 5 mM ammonium formate, pH 2.7) followed by 2 mL of Buffer B (5 mM ammonium formate, pH 2.7) and finally re-equilibrated with 10 mL Buffer A. The diluted samples were loaded onto the cartridges and washed with a further 10 mL Buffer A. Finally, peptides were eluted in 1 mL Buffer C (9 parts Buffer B plus 1 part Buffer A) and the samples dried on a Speedvac to remove organic solvent prior to LC-MS/MS analysis.
LC-MS/MS analysis. Lyophilised digests were resuspended in 50 μL of 0.1% TFA to give an approximate concentration of 1 μg/μL. One μL injection volumes were used throughout resulting in an on-column peptide loading of approximately 1 μg per injection. Analysis was performed in quintuplicate for each sample. […]

MCF7 cells [3] = assay: Mitochondrial mass quantification by flow cytometry (MitoTracker Deep Red); details: 50 μM, 5 days, relative to vehicle
From the text: In order to assess whether the inhibition of DRP1 was actually being translated into a reduction in mitochondrial fission, the inventors stained the mitochondria of MCF7 cells with Mitotracker Deep Red, which is a marker of mitochondrial mass. […] The original images are black background with shades of red over the cells, whereas the images in FIG. 3 have been color-inverted and generated in grey scale. Mitochondrial mass was also quantified by flow cytometry. FIGS. 4A-4C show results of mitochondrial mass quantification. In FIG. 4A, Mitotracker Deep Red mean intensity relative to vehicle intensity is shown for 2-day and 5-day treatments.
MITOCHONDRIAL MASS QUANTIFICATION: To measure mitochondrial mass, cells were stained with MitoTracker Deep Red (M22426, Invitrogen). Briefly, 2×10^5 […] cells per well were seeded in 6-well plates. […] Cells were then incubated for 15 min at 37° C. with the 10 nM Mitotracker Deep Red probe diluted in PBS (D8662, Sigma). All subsequent steps were performed in the dark. Cells were washed in PBS, harvested, and resuspended in PBS. Mitotracker signal was quantified as mean fluorescent intensity of the viable cell population in a Fortessa flow cytometer (BD Bioscience). Results were analyzed using FlowJo software.

With `COc1cc(-n2c(S)nc3ccccc3c2=O)c(Cl)cc1Cl` [mDIVI-1, 3-(2,4-Dichloro-5-methoxyphenyl)-2-sulfanyl-4(3H)-quinazolinone] as the molecule, how does the “reduction of percentage of wound closure” value (MCF7 cells [1]; 10 μM) read?
Its value is 14%.

What about the “reduction of percentage of wound closure” value (MCF7 cells [1]; 50 μM) of the same molecule?
The value was 44%.

And the “Change in expression: Hexokinase 1 (HK1)” value (MCF7 cells [2]; Glycolysis, 48 hours)?
Its value is “↓Infinite”.

What about the “BMP7 expression change (proteomics)” value (MCF7 cells [2]; 48 hours vs vehicle) of the same molecule?
Its value is −47.17.

And the “CELSR2 expression change (proteomics)” value (MCF7 cells [2]; 48 hours vs vehicle)?
The value was −1.6.

And the “EPCAM expression change (proteomics)” value (MCF7 cells [2]; 48 hours vs vehicle)?
The value was −1.58.

And the “EphA2 expression change (proteomics)” value (MCF7 cells [2]; 48 hours vs vehicle)?
The value was −1.74.

What about the “F11 receptor expression change (proteomics)” value (MCF7 cells [2]; 48 hours vs vehicle) of the same molecule?
The value was −1.70.

What about the “LAMP1 expression change, upregulated (proteomics)” value (MCF7 cells [2]; 48 hours vs vehicle) of the same molecule?
The value was 2.83.

And the “STAT3 expression change (proteomics)” value (MCF7 cells [2]; 48 hours vs vehicle)?
Its value is −1.83.

And the “ZO-1 expression change (proteomics)” value (MCF7 cells [2]; 48 hours vs vehicle)?
Its value is −1.62.

What about the “collagen type IV upregulation (proteomics)” value (MCF7 cells [2]; 48 hours vs vehicle) of the same molecule?
The value was 1.9 fold.

And the “desmoplakin expression change (proteomics)” value (MCF7 cells [2]; 48 hours vs vehicle)?
The value was −4.58.

What about the “junction plakoglobin expression change (proteomics)” value (MCF7 cells [2]; 48 hours vs vehicle) of the same molecule?
The value was −1.65.

And the “keratin 8 expression change (proteomics)” value (MCF7 cells [2]; 48 hours vs vehicle)?
Its value is −5.24.

And the “keratin 18 expression change (proteomics)” value (MCF7 cells [2]; 48 hours vs vehicle)?
The value was −12.21.

And the “Mitotracker Deep Red mean fluorescence intensity (mitochondrial mass)” value (MCF7 cells [3])?
The value was “significantly higher”.

Source: US11559527B2 (priority 2017, dated 2023)
